Measured values: patent publication US6610702B2, “Ammonium salts of inositol hexaphosphate, and uses thereof” (GMP Oxycell, Inc., priority 2000, dated 2003)
Where a name gives a salt, the structure may show the parent alone. Read-outs that look alike come from different tables or passages of the source.

Legend:
Free Hemoglobin = Free Hemoglobin (Homo sapiens, UniProt P68871); experiment: P50 of free hemoglobin in the presence of effector; format: biochemical; details: fHb
[1] = 1-octanol/aqueous phase partition coefficients of IHP salts measured by 31P-NMR; format: physicochemical
Excerpt: Partition coefficients measurements. We synthesized a first series of IHP derivatives, ionically associated to different aliphatic and aromatic amines as well as amino-esters. Taking advantage of the 6 phosphate groups present in the IHP molecule, we measured, by ^31P-NMR, the partition coefficients of IHP salts between a 1-octanol phase and two different aqueous phases: water and human serum. In FIG. 11 are represented the structures of the different amines preassociated to IHP and the corresponding partition coefficients Kow and Kos. These coefficients are measured after equilibration, at a concentration of 30 mM, close to the typical concentration employed for the biological evaluations (the standard concentration used for O2-dissociation curve measurements is 22 mM).
Choice of the aqueous phases. […] To be even closer to physiological conditions, we pushed this investigation further by measuring 1-octanol/human serum partition coefficients Kos. […] Therefore, we only measured Kos's when Kow values were significant. To illustrate this observation we compared the partitions of 2 IHP derivatives, SV75 and SV131, in different aqueous systems: water, artificial serum (for its composition, see the Experimental section) without and with albumin, and human serum.
Human serum was purchased at the “Centre de Transfusion Sanguine de Strasbourg”. Artificial serum was based on blood composition : [Na^+]=140 mM, [Mg^2+]=1 mM, [K^+]=5 mM, [Ca^2+]=1 mM, [Cl^−]=106 mM, [PO4^3−]=1 mM, [SO4^2−]=0.5 mM, [CO3^2−]=30 mM, [Br^−]=0.5 mM, bovine serum albumin (fraction V, >98%) 30 g.l^−1, pH=7.41.
Partition coefficients. […] 1 ml of 1-octanol was then added and each sample was shaken at 36 rpm during 12 hours. The equilibrated biphasic solutions were centrifuged for 2 hours at 3000 rpm. 350 μl of the octanolic phase was first taken off with a syringe and put directly in the NMR tube. 350 μl of the aqueous phase was then taken off. ^31P-NMR spectra were performed on a Bruker AC-300 apparatus. An external standard (triphenylphosphine oxide, 60 mM in d6-DMSO) was placed inside the NMR tubes to allow both the locking process of the apparatus and an accurate integration of IHP peaks. Partition coefficients were determined as the ratio of IHP integrations, relative to the external standard, in the octanol and aqueous phases.

whole blood [2] = experiment: P50 of whole blood pre-incubated with effector (Hemox Analyzer); format: cell-based
Protocol: Whole blood was collected from one subject. The blood was stored in a Vacutainer with Solution A (ACD) and stored at 4-8° C.
Preparation of Effector Stock: Effector stock was prepared at 100-120 mM (Molal solution) using water or Bis-Tris Buffer. Effector characteristics prior to incubation were:
Incubation: Whole blood (75-300 μL) was incubated with 200 μL of effector at 37° C. for 5-10 min. (see Summary of Results below).
(§1) Washes: After incubation of whole blood with/without effector, blood cells were washed four times with Saline buffer or HBS (BSA) by centrifugal pelleting to remove exogenous effector and to evaluate hemolysis. After final centrifugation, pellet was not resuspended.
Blood Oxygen Dissociation Reading: Blood Oxygen Dissociation of samples were determined using a Hemox Analizer Model B (TCS Medical Products Company, New Hope, Pa.). The sample chamger contained:
10-20 μL Pelleted Blood Cells incubated with Effector
All readings were made at 36.7-37.2° C. and at pH 7.28-7.32. The P50s were calculated from the Dissociation Curves compared to same day control P50.

whole blood [3] = experiment: P50 shift on whole blood, first library (Hb-O2 dissociation curve); format: cell-based; details: 220 mOsM, control IHP sodium form, 37° C.
Protocol: In FIG. 14 the different IHP derivatives have been classified by amine types, the number of cations per IHP molecule as well as the reference number are indicated beside each amine drawings. The P50 shift values have to be compared to the control experiment (underlined), corresponding to a test performed in the same conditions but with IHP, sodium form. P50 values have been measured in Professor Nicolau's laboratory in Boston (bioassay conditions: 75 μl of whole blood was incubated 2 minutes with 300 μl of a 50 mM solution of IHP derivatives. The system was then washed and 20 μl were used for measurement of the Hb-O2 dissociation curve at 37° C.). See also FIGS. 15-17 for tables of P50 values at various osmolarities of whole blood, and free hemoglobin that has been pre-incubated with various ammonium salts of inositol hexaphosphate.

red blood cells = experiment: hemolysis of red blood cells on incubation of whole blood with effector; format: cell-based
Protocol: as §1

stripped hemoglobin = stripped hemoglobin (Homo sapiens, UniProt P68871); details: pH 7.4, cited from earlier work
Sequence of stripped hemoglobin (P68871 2-147 limits assumed): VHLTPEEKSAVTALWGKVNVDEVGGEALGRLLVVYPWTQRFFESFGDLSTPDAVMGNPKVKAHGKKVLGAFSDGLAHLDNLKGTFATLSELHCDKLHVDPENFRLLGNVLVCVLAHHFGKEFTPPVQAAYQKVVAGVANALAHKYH
Sequence of stripped hemoglobin (P69905 2-142 partner limits assumed): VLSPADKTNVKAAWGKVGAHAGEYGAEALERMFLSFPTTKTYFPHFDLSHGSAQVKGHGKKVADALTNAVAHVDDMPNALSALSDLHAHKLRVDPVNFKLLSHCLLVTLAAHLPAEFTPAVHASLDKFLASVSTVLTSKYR

[4] = 0.25 umoles EFF, control P50 16 mmHg, 37° C.
[5] = 1-octanol/water, concentration of 30 mM

Sequence of Free Hemoglobin (P68871 2-147 limits assumed): as the sequence (P68871 2-147 limits assumed) above
Sequence of Free Hemoglobin (P69905 2-142 partner limits assumed): as the sequence (P69905 2-142 partner limits assumed) above

Inositol hexaphosphate, penta cyclohexyl-(1,3-bismethylammonium) salt [SV 94]
P50 mmHg EFF (free hemoglobin) (Free Hemoglobin; [4]): 41.0 mmHg

NC1CCCCCC1 [SV75, Inositol hexaphosphate, nona-cycloheptylammonium salt]
Koas (artificial serum with albumin) ([1]; 1-octanol/artificial serum with albumin, at 18 mM): 0.041 | Koa (artificial serum without albumin) ([1]; 1-octanol/artificial serum without albumin, at 18 mM): 0.088 | Kos (human serum) ([1]; 1-octanol/human serum, at 18 mM): 0.031 | Kow (water) ([1]; 1-octanol/water, at 18 mM): 0.411

NC1CCCC1.NC1CCCC1.NC1CCCC1.NC1CCCC1.NC1CCCC1.NC1CCCC1.NC1CCCC1.NC1CCCC1.NC1CCCC1.NC1CCCC1.NC1CCCC1.O=P(O)(O)OC1C(OP(=O)(O)O)C(OP(=O)(O)O)C(OP(=O)(O)O)C(OP(=O)(O)O)C1OP(=O)(O)O (stereo not shown) [SV78, Inositol hexaphosphate, undeca-cyclopentylammonium salt]
Kow [1, 5]: < 10^−3

C1CCCC(NCCN(CCNC2CCCCCC2)CCNC2CCCCCC2)CC1.C1CCCC(NCCN(CCNC2CCCCCC2)CCNC2CCCCCC2)CC1.C1CCCC(NCCN(CCNC2CCCCCC2)CCNC2CCCCCC2)CC1.O=P(O)(O)O[C@H]1[C@H](OP(=O)(O)O)[C@@H](OP(=O)(O)O)[C@H](OP(=O)(O)O)[C@@H](OP(=O)(O)O)[C@H]1OP(=O)(O)O [SV137, Inositol hexaphosphate, tris tri-(N-cycloheptyl-2-amino-ethyl)-ammonium salt]
Kos ([1]; 1-octanol/human serum, concentration of 30 mM): 0.64 | Kow [1, 5]: 2.70 | P50 mmHg EFF:WB (whole blood [2]; effector 268 mOsM, EFF:WB 1:0.375, pH 7.2-7.3, control 29.5): 32.0 mmHg

NC1CCCCCCC1 [cyclooctylammoniums]
equivalents of cyclooctylammoniums required to reach a Kos value equal to 1 ([1]; constant IHP concentration 22 mM, human serum/octanol, IHP sodium salt in serum, ammonium hydrochloride in organic phase): 8 equivalents

NC1CCCCC1N.NC1CCCCC1N.NC1CCCCC1N.NC1CCCCC1N.NC1CCCCC1N.O=P(O)(O)O[C@H]1[C@H](OP(=O)(O)O)[C@@H](OP(=O)(O)O)[C@H](OP(=O)(O)O)[C@@H](OP(=O)(O)O)[C@H]1OP(=O)(O)O [SV 92, Inositol hexaphosphate, penta (±)-(trans)-1,2-cyclohexyldiammonium salt]
P50 mmHg EFF (free hemoglobin) (Free Hemoglobin; [4]): 45.0 mmHg | P50 mmHg EFF:WB (whole blood [2]; effector 84 mOsM, EFF:WB 1:0.375, pH 7.2-7.3, control 41.4): 58.5 mmHg | P50 mmHg EFF:WB (whole blood [2]; effector 336 mOsM, EFF:WB 1:1.5, pH 7.2-7.3, control 40.5): 38.7 mmHg

C1CCC(N2CCCCC2)CC1.C1CCC(N2CCCCC2)CC1.C1CCC(N2CCCCC2)CC1.C1CCC(N2CCCCC2)CC1.C1CCC(N2CCCCC2)CC1.C1CCC(N2CCCCC2)CC1.C1CCC(N2CCCCC2)CC1.C1CCC(N2CCCCC2)CC1.C1CCC(N2CCCCC2)CC1.O=P(O)(O)O[C@H]1[C@H](OP(=O)(O)O)[C@@H](OP(=O)(O)O)[C@H](OP(=O)(O)O)[C@@H](OP(=O)(O)O)[C@H]1OP(=O)(O)O [SV 97, Inositol hexaphosphate, nona N-cyclohexyl-piperidinium salt]
P50 mmHg EFF (free hemoglobin) (Free Hemoglobin; [4]): 46.7 mmHg | P50 mmHg EFF:WB (whole blood [2]; effector 111 mOsM, EFF:WB 1:0.375, pH 7.2-7.3, control 41.5): 49.7 mmHg | P50 mmHg EFF:WB (whole blood [2]; effector 343 mOsM, EFF:WB 1:1.5, pH 7.2-7.3, control 40.5): 40.0 mmHg

Inositol hexaphosphate, octa menthyl-1,8-diammonium salt [SV 89]
P50 mmHg EFF (free hemoglobin) (Free Hemoglobin; [4]): 41.7 mmHg

NC1CCCCC1.NC1CCCCC1.NC1CCCCC1.NC1CCCCC1.NC1CCCCC1.NC1CCCCC1.NC1CCCCC1.NC1CCCCC1.NC1CCCCC1.NC1CCCCC1.NC1CCCCC1.O=P(O)(O)OC1C(OP(=O)(O)O)C(OP(=O)(O)O)C(OP(=O)(O)O)C(OP(=O)(O)O)C1OP(=O)(O)O (stereo not shown) [SV81, Inositol hexaphosphate, undeca-cyclohexylammonium salt]
shift of the P50 value (compared to the control experiment) (whole blood [3]): 50%

C1CCCC(NCCCN2CCN(CCCNC3CCCCCCC3)CC2)CCC1.C1CCCC(NCCCN2CCN(CCCNC3CCCCCCC3)CC2)CCC1.C1CCCC(NCCCN2CCN(CCCNC3CCCCCCC3)CC2)CCC1.O=P(O)(O)O[C@H]1[C@H](OP(=O)(O)O)[C@@H](OP(=O)(O)O)[C@H](OP(=O)(O)O)[C@@H](OP(=O)(O)O)[C@H]1OP(=O)(O)O [SV141, Inositol hexaphosphate, tri N,N′-di-(3-(N-cyclooctyl-amino)-propyl)-piperazinium salt]
lysis of whole blood incubated with effector (red blood cells; WB, EFF:WB 1:0.375, no sufficient RBC pellet): Lyses | P50 mmHg EFF (free hemoglobin) (Free Hemoglobin; ratio 1:1 (2.5 mM:2.5 mM), pH 7.1-7.2, control P50 10.5 mmHg): 22.0 mmHg | P50 mmHg EFF:WB (whole blood [2]; effector 221 mOsM, EFF:WB 1:1.5, pH 7.1-7.2, control 25): 25.0 mmHg

NC1CCCCC1.NC1CCCCC1.NC1CCCCC1.NC1CCCCC1.NC1CCCCC1.NC1CCCCC1.NC1CCCCC1.NC1CCCCC1.NC1CCCCC1.O=P([O-])([O-])OC1C(OP(=O)([O-])O)C(OP(=O)(O)O)C(OP(=O)(O)O)C(OP(=O)(O)O)C1OP(=O)(O)O.[Na+].[Na+].[Na+] (stereo not shown) [ICP6, nona cyclohexylammonium tri sodium inositol hexaphosphate]
P50 EFF:WB (whole blood [2]; EFF 30 mM, EFF:WB 22 mM, 220 mOsM, pH 7.23, ratio 1:0.375, control WB 27.5, 37 C.): 39 mmHg

C1CCC(NCCN(CCNC2CCCCC2)CCNC2CCCCC2)CC1.C1CCC(NCCN(CCNC2CCCCC2)CCNC2CCCCC2)CC1.C1CCC(NCCN(CCNC2CCCCC2)CCNC2CCCCC2)CC1.O=P(O)(O)O[C@H]1[C@H](OP(=O)(O)O)[C@@H](OP(=O)(O)O)[C@H](OP(=O)(O)O)[C@@H](OP(=O)(O)O)[C@H]1OP(=O)(O)O [SV102, Inositol hexaphosphate, tris tri-(N-cyclohexyl-2-amino-ethyl)-ammonium salt]
P50 mmHg EFF (free hemoglobin) (Free Hemoglobin; [4]): 41.0 mmHg | P50 mmHg EFF:WB (whole blood [2]; effector 82 mOsM, EFF:WB 1:0.375, pH 7.2-7.3, control 41.5): 75.0 mmHg | P50 mmHg EFF:WB (whole blood [2]; effector 321 mOsM, EFF:WB 1:1.5, pH 7.2-7.3, control 40.5): 39.5 mmHg

O=C(O)C(COP(=O)(O)O)OP(=O)(O)O (stereo not shown) [2,3-Diphosphoglycerate]
half-saturation pressure P(O2) (½) of stripped hemoglobin (stripped hemoglobin; 25 C., stripped hemoglobin alone 4.3): 12.0 mm Hg | half-saturation pressure P(O2) (½) of stripped hemoglobin (stripped hemoglobin; 37 C., stripped hemoglobin alone 9.3): 23.7 mm Hg

CCC(C)C(N)C(=O)OC(C)(C)C.CCC(C)C(N)C(=O)OC(C)(C)C.CCC(C)C(N)C(=O)OC(C)(C)C.CCC(C)C(N)C(=O)OC(C)(C)C.CCC(C)C(N)C(=O)OC(C)(C)C.CCC(C)C(N)C(=O)OC(C)(C)C.CCC(C)C(N)C(=O)OC(C)(C)C.CCC(C)C(N)C(=O)OC(C)(C)C.O=P(O)(O)OC1C(OP(=O)(O)O)C(OP(=O)(O)O)C(OP(=O)(O)O)C(OP(=O)(O)O)C1OP(=O)(O)O (stereo not shown) [SV57, Inositol hexaphosphate, octa isoleucine-tbuthyl-ester]
hemolysis of red blood cells (red blood cells; first library bioassay on whole blood): fast hemolysis
